“And” between values parts separate entries of the source, which are not always exact repeats. Equal values may be shown once.
Assays:
[1] = test system: NRF2 protein; assay: Western blot, NRF2 protein accumulation in cells; format: cell-based, human
Description: Western blotting was performed as described previously. Treated cells were lysed by RIPA buffer supplemented with protease inhibitor. The expression level of indicated proteins was examined by immunoblotting analysis and GAPDH was used as the loading control. Antibodies were purchased commercially: cullin 1 (sc-17775, 1:500 dilution) and cullin 2 (sc-166506, 1:500 dilution) from Santa Cruz Biotech (Santa Cruz, CA); cullin 4A (PA5-14542, 1:1000 dilution), cullin 4B (PA5-50647, 1:1000 dilution), and DCN3 (DCUN1D3, PA5-44000, 1:1000 dilution) from Thermo Fisher Scientific (Wayne, MI); cullin 3 (2759, 1:1000), NRF2 (12721, 1:1000 dilution), HO-1 (70081, 1:1000 dilution), and Bim (2819, 1:1000 dilution) from Cell Signaling Technology (Boston, MA); DCN1 (GWB-E3D700, 1:1000 dilution) from GenWay Biotech (San Diego, CA); and cullin 5 (A302-173A, 1:500 dilution) from Bethyl Labs (Montgomery, TX). Results are representative of two independent experiments.

[2] = test system: NRF2 protein in mouse liver tissue; assay: Pharmacodynamics: NRF2 protein in mouse liver tissue (western blot); format: in vivo; conditions: single dose 25 mg/kg IP; for upregulation of NRF2 protein in the mouse liver: C57BL/6 male mice
Description: Fig. 7 DI-1859 effectively increases the level of NRF2 protein in the liver tissue and protects liver tissue damage induced by acetaminophen (APAP) in mice. a Western blotting analysis of the effect of DI-1548 or DI-1859 on the level of NRF2 protein in mouse liver tissue. Liver tissues harvested from C57BL/6 male mice treated with DI-1548 or DI-1859 at 25 mg/kg via intraperitoneal (IP) injection was lysed with RIAP buffer. The expression level of NRF2 protein was examined by western blotting. GAPDH was used a loading control. Representative images of two independent experiments are shown. b Analysis of the serum alanine aminotransferase (ALT) level in mice. The time (h) counted from APAP administration in G2 and G5-8, from DI-1859 or vehicle administration in G1, G3, and G4. Data are presented as mean ± s.d. with n = 9 (G1), 9 (G2), 8 (G3), 8 (G4), 9 G5), 9 (G6), 9 (G7), and 9 (G8). c Immunohistological analysis of mouse liver tissues. Images are representatives in each group. Images were taken with a 100× objective. Scale bar: 100 µm. d Analysis of the ROS level in mouse liver tissue. Data are presented as mean ± s.d. with n = 9 (G1), 8 (G2), 8 (G3), 8 (G4), 8 (G5), 6 (G6), 9 (G7), and 9 (G8). G1: Vehicle (qD for 3 days); G2: APAP (400 mg/kg, a single dose); G3: DI-1859 (25 mg/kg, qD for 3 days); G4: DI-1859 (50 mg/kg, qD for 3 days); G5: DI-1859 (25 mg/kg, qD for 3 days), a single dose of APAP at 400 mg/kg administered 3 h after the second dose of DI-1859 administration on day 2; G6: DI-1859 (50 mg/kg, qD for 3 days), a single dose of APAP at 400 mg/kg administered 3 h after the second dose of DI-1859 administration on day 2; G7: APAP (400 mg/kg, a single dose), followed with DI-859 at 25 mg/kg 3 h after APAP administration and two additional doses on day 2 and day 3; and G8: APAP (400 mg/kg, a single dose), followed with DI-859 at 50 mg/kg 3 h after APAP administration and two additional doses on day 2 and day 3. n = 8–9 mice per group. Source data are provided as a Source Data file.
Western blotting was performed as described previously. […]

[3] = test system: NQO1 mRNA; assay: RT-PCR, NQO1 mRNA in THLE2 cells; format: cell-based, human; conditions: for NQO1 mRNA level relative to control: THLE2, 10 nM, replicates
Description: Supplementary Figure 23. DI‐1859 increases the mRNA level of NRF2 ta rge te d genes NQO1 and
HO‐1. THLE2 cells we re treated with DI‐1859 at 10 nM fo r 4, 8 and 24 h. Tr e a t e d cells were
harvested and the mRNA level of HO‐1 and NQO1 we re exa m i n e d by RT‐PCR assay. The probes
Scientific (Ann Arbor, MI). Data are presented as mean values with n = 2 independent biological […]

SMILES | times more potent than DI-591 in inducing accumulation of NRF2 protein [1] | upregulation of NRF2 protein in the mouse liver [2] | NQO1 mRNA level relative to control ([3]; 4 h (time from row order and b199)) | NQO1 mRNA level relative to control ([3]; 8 h (time from row order and b199)) | NQO1 mRNA level relative to control ([3]; 24 h (time from row order and b199)) | increase of NQO1 mRNA level ([3]; THLE2 liver cells, qRT-PCR) | persistence of upregulation of NRF2 in mouse liver [2]
C=C(CN1CCOCC1)C(=O)NC[C@@H](NC(=O)[C@H](Cc1nc2ccc(C(C)C)cc2s1)NC(=O)CC)C1CCCCC1 [DI-1548] | 100–1000 times | robust upregulation | – | – | – | – | –
C=C(CN(C)C)C(=O)NC[C@@H](NC(=O)[C@H](Cc1nc2ccc(C(C)C)cc2s1)NC(=O)CC)C1CCCCC1 [DI-1859] | 100–1000 times | robust upregulation | 2.3 and 2 | 2.7 and 2.6 | 19.3 and 16 | 17 folds | > 24 h

Reference: PMC8113459, “Selective inhibition of cullin 3 neddylation through covalent targeting DCN1 protects mice from acetaminophen-induced liver toxicity” (Nature Communications, 2021)
